Data on three compounds can be found in patent publication US12479847B2 (DANA-FARBER CANCER INSTITUTE, INC., priority 2019, dated 2025).

Structures are written as SMILES.

Assay in all cases: KINOMEscan (ScanMAX) kinase profiling
Common to all, as to format: binding

Experiment [1] concerns the target T1, panel of 468 kinases (Homo sapiens, UniProt Q9BYT3).
T1 construct: purchased KINOMEscan (ScanMAX) service
As to conditions: STK33; 1 μM; read-out: % control.

Experiment [2] addresses T2, panel of 468 kinases (Homo sapiens, UniProt P23443).
T2 construct: purchased KINOMEscan (ScanMAX) service
As to conditions: S6K1; 1 μM; read-out: % control.

Experiment [3] deals with T3, panel of 468 kinases (Homo sapiens, UniProt Q9H4A3).
T3 construct: purchased KINOMEscan (ScanMAX) service
As to conditions: WNK1; 1 μM; read-out: % control.

The target in experiment [4] is T4, panel of 468 kinases (Homo sapiens, UniProt O43283).
T4 construct: purchased KINOMEscan (ScanMAX) service
T4 sequence (O43283 1-966): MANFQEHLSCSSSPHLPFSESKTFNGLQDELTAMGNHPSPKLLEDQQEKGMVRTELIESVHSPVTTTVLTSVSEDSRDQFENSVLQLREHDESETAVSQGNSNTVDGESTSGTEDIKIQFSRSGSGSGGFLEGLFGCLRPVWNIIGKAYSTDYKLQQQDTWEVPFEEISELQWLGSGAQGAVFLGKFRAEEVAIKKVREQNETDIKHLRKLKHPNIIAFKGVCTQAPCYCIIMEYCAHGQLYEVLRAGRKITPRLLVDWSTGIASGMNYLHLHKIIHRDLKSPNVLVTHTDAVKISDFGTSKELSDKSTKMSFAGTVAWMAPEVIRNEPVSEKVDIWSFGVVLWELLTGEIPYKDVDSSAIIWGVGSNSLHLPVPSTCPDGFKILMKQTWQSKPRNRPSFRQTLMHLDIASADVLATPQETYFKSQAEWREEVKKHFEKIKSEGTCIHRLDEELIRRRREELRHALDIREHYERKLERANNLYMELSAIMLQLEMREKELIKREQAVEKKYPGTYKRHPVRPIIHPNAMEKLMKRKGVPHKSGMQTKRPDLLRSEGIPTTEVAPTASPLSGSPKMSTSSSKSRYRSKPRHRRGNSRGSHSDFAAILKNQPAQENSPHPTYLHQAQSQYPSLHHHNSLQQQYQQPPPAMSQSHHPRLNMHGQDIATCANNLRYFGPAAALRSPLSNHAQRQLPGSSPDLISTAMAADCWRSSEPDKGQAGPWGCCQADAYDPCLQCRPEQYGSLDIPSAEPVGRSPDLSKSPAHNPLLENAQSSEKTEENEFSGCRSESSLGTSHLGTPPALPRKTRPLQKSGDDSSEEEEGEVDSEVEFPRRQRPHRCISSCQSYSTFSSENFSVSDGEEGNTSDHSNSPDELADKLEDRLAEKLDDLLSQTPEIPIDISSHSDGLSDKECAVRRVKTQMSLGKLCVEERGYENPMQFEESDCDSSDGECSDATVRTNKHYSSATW
The conditions noted are these: LZK; 1 μM; read-out: % control.

Experiment [5] addresses T5, panel of 468 kinases (Homo sapiens, UniProt O75747).
T5 construct: purchased KINOMEscan (ScanMAX) service
T5 sequence (O75747 1-1486): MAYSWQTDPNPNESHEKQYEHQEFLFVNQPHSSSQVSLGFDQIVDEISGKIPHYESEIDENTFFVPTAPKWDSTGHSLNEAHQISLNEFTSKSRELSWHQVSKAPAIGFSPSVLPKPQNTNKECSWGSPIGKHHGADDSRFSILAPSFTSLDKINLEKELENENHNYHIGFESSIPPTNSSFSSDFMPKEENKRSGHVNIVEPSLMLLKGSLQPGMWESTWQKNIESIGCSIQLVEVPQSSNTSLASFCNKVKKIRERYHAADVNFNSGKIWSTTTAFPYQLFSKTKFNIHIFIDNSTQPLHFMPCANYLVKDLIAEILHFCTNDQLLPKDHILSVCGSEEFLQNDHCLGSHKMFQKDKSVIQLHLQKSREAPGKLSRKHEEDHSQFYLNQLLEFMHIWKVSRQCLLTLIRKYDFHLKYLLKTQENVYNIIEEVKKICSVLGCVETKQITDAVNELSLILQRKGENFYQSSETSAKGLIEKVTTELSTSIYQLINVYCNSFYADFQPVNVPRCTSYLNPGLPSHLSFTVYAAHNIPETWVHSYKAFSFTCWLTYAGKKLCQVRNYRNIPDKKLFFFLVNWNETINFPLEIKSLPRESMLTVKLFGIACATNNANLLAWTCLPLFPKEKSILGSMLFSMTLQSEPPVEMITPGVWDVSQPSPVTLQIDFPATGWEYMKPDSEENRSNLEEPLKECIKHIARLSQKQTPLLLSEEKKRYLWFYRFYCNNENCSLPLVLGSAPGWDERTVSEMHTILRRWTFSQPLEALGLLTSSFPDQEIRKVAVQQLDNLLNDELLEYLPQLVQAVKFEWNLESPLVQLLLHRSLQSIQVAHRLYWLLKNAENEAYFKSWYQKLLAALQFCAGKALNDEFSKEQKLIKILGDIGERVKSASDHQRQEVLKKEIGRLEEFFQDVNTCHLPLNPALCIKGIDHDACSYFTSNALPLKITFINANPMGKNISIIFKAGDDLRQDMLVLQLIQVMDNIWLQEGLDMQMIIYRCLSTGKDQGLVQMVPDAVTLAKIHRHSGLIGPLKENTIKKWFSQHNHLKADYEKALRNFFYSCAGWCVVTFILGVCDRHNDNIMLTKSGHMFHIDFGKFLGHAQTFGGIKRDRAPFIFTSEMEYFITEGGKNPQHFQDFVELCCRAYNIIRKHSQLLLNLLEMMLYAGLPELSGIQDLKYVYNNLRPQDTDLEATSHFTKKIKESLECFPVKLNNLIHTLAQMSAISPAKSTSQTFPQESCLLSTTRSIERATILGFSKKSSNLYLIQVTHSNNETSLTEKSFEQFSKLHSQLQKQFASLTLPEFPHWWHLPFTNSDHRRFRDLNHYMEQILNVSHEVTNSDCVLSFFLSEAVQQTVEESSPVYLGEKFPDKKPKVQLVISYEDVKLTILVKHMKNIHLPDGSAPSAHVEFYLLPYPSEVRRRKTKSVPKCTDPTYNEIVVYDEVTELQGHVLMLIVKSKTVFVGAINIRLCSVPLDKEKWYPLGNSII
As to conditions: PIK3C2G; 1 μM; read-out: % control.

T3 sequence (Q9H4A3 whole entry): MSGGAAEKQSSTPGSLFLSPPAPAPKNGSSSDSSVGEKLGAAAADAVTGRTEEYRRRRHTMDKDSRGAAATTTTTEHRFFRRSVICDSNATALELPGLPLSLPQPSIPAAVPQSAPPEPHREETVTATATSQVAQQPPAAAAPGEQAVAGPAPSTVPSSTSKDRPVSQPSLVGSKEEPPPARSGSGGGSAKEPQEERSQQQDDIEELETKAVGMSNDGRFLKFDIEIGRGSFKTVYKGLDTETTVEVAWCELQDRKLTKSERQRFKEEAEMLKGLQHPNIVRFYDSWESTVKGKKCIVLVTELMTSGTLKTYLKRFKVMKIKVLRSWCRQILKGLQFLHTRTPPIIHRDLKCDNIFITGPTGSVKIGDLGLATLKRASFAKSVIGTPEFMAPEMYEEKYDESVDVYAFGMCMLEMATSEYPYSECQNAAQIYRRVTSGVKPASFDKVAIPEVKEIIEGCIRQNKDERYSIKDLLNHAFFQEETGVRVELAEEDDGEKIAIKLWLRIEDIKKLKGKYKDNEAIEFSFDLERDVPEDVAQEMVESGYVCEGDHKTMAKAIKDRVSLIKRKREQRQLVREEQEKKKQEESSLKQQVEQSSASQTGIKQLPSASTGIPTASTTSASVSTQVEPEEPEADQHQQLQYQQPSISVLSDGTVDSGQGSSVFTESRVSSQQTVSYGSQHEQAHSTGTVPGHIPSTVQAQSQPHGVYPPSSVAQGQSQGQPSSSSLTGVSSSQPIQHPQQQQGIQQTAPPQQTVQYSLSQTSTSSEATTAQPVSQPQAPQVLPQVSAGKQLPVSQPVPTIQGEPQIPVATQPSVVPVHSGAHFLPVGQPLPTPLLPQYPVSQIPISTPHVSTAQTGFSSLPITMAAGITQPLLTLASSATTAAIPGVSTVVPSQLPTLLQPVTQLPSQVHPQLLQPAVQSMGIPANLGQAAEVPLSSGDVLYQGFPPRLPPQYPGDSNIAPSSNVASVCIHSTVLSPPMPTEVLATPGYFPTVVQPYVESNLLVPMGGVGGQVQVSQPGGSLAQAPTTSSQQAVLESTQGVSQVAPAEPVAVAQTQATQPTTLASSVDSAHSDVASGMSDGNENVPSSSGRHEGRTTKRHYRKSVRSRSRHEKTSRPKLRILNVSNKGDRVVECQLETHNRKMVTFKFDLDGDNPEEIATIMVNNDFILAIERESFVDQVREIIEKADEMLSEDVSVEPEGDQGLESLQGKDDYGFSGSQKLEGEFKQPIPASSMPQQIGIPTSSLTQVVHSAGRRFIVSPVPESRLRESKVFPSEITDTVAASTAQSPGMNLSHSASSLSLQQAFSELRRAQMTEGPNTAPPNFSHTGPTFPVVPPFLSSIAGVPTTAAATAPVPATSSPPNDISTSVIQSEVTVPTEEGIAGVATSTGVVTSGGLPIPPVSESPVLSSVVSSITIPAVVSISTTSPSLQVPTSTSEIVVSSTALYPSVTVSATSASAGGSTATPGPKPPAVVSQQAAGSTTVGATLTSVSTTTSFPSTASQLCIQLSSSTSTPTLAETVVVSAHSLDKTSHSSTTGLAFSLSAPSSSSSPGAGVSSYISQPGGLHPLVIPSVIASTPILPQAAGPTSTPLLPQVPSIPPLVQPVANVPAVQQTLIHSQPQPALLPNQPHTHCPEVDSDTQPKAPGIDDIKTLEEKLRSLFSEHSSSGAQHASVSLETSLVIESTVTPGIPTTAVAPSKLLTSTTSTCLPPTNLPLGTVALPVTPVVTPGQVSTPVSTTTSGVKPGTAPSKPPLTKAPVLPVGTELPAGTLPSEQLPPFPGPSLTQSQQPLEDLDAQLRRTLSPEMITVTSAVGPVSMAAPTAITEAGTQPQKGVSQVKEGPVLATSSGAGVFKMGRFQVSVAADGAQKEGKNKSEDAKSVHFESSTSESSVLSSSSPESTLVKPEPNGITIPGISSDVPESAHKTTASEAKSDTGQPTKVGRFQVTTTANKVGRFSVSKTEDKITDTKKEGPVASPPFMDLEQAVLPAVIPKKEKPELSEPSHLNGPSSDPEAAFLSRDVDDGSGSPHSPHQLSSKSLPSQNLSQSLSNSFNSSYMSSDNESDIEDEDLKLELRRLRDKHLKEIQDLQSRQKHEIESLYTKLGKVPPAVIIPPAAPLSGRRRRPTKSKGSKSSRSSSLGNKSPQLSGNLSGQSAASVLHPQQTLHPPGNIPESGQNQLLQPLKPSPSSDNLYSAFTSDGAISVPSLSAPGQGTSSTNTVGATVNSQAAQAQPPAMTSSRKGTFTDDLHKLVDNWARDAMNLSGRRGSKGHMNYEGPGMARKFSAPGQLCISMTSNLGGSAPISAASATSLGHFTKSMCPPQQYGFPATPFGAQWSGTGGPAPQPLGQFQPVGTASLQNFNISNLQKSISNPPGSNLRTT
T1 sequence (Q9BYT3 whole entry): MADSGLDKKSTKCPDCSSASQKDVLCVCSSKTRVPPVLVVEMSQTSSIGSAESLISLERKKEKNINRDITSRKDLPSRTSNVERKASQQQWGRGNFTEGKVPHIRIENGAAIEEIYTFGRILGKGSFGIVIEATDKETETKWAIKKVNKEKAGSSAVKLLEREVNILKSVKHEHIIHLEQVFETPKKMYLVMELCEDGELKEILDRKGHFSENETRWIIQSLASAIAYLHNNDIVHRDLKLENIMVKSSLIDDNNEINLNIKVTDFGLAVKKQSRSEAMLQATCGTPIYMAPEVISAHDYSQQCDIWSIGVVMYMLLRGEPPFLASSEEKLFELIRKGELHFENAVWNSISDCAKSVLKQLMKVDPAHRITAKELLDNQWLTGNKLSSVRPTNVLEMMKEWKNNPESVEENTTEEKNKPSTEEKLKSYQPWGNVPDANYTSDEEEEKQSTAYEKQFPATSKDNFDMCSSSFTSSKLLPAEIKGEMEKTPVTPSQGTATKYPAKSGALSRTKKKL
T2 sequence (P23443 whole entry): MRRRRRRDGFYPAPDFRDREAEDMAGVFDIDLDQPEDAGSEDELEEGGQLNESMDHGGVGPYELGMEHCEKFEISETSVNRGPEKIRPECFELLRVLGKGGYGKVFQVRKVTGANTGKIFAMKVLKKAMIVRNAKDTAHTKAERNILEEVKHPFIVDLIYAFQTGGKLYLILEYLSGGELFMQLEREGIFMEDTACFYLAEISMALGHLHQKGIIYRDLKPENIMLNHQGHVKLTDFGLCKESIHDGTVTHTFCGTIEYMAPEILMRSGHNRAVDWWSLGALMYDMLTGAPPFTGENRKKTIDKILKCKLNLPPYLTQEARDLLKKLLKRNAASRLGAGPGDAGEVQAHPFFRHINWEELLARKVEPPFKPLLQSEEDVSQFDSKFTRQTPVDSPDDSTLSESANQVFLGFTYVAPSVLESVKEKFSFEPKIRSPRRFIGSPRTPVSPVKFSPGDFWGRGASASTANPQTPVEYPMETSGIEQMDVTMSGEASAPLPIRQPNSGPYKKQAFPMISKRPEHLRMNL

Take `CNc1nc(Nc2ccc(S(=O)(=O)N3CCC(N4CCOCC4)CC3)cc2OC)nc2[nH]cc(Cl)c12` [Compound 12, 5-chloro-N2-(2-methoxy-4-((4-morpholinopiperidin-1-yl)sulfonyl)phenyl)-N4-methyl-7H-pyrrolo[2,3-d]pyrimidine-2,4-diamine]: the remaining binding at 1 µM on panel of 468 kinases [1] is 10%; on panel of 468 kinases [2], 100%; at panel of 468 kinases [3], 100%; on panel of 468 kinases [4] it was 63%; on panel of 468 kinases [5], 100%.
`CNc1nc(Nc2ccc(C(=O)N3CCC(N4CCOCC4)CC3)c3c2OCO3)nc2[nH]cc(Cl)c12` [Compound 75, (7-((5-chloro-4-(methylamino)-7H-pyrrolo[2,3-d]pyrimidin-2-yl)amino)benzo[d][1,3]dioxol-4-yl)(4-morpholinopiperidin-1-yl)methanone]: the remaining binding at 1 µM at panel of 468 kinases [1] stood at 7.2%; on panel of 468 kinases [2], 63%; on panel of 468 kinases [3], 100%; on panel of 468 kinases [4], 57%; on panel of 468 kinases [5] it was 100%.
On to `CNc1nc(Nc2ccc(P3(=O)CCN(C4CCOCC4)CC3)cc2OC)nc2[nH]cc(Cl)c12` [Compound 77, 4-(4-((5-chloro-4-(methylamino)-7H-pyrrolo[2,3-d]pyrimidin-2-yl)amino)-3-methoxyphenyl)-1-(tetrahydro-2H-pyran-4-yl)-1,4-azaphosphinane 4-oxide], for which the remaining binding at 1 µM came out at 6.9% on panel of 468 kinases [1]; 98% on panel of 468 kinases [2]; 91% on panel of 468 kinases [3]; 62% on panel of 468 kinases [4]; 93% at panel of 468 kinases [5].
